Source: patent US20240307480A1, “MELFLUFEN FOR USE IN THE TREATMENT OF MULTIPLE MYELOMA” (Oncopeptides AB, priority 2021, published 2024)

Tested on: patients with relapsed refractory multiple myeloma (RRMM) refractory to lenalidomide
Assay: Randomized, controlled, open-label, Phase 3 multicenter study of melflufen+dexamethasone versus pomalidomide+dexamethasone (Example 1)
Type: in vivo, human
Settings: for OS / PFS: no stem cell transplant
Protocol: Patients received either melflufen+dexamethasone or pomalidomide+dexamethasone.
Patients were randomized to either one of two arms (see Table 1 below): • Arm A: Melphalan flufenamide (Melflufen) 40 mg on Day 1 and dexamethasone 40 mg on Days 1, 8, 15 and 22 of each 28-day cycle. • Arm B: Pomalidomide 4 mg daily on Days 1 to 21 and dexamethasone 40 mg on Days 1, 8, 15 and 22 of each 28-day cycle.
Dose modifications and delays in therapy were implemented based on patient tolerability as detailed in the protocol. In the event of a cycle delay, unrelated to dexamethasone toxicity, it was recommended to continue dexamethasone weekly.
• Study Type: Interventional (Clinical Trial) • Actual Enrollment: 495 participants • Allocation: Randomized • Intervention Model: Parallel Assignment • Masking: Single (Outcomes Assessor) • Primary Purpose: Treatment • Official Title: A Randomized, Controlled, Open-label, Phase 3 Study of Melflufen/Dexamethasone Compared With Pomalidomide/Dexamethasone for Patients With Relapsed Refractory Multiple Myeloma Who Are Refractory to Lenalidomide
• 1. Progression Free Survival (PFS) [Time Frame: From randomization to time of progression, or, if no progression, 24 months after end of treatment]: To compare the PFS of melflufen plus dexamethasone (Arm A) versus pomalidomide plus dexamethasone (Arm B) as assessed by the Independent Review Committee (IRC) according to the International Myeloma Working Group Uniform Response Criteria (IMWG-URC)
• 1. […] Overall Survival (OS) [Time Frame: From randomization until end of study (2 years after confirmed progression)]: To assess and compare OS in Arm A versus Arm B • 4. Safety and Tolerability: Number of patients with treatment-emergent adverse events, including clinical laboratory and vital signs abnormalities, as assessed by CTCAE v4.0 [Time Frame: From start of dosing until 30 days after last dose]: To assess and compare safety and tolerability in Arm A versus Arm B. Number of patients with treatment-emergent adverse events, including clinical laboratory and vital signs abnormalities, as assessed by CTCAE v4.0 will be presented. No formal statistical analysis will be performed for safety endpoints.
• 1. Male or female, age 18 years or older • 2. A prior diagnosis of multiple myeloma with documented disease progression requiring further treatment at time of screening • 3. Measurable disease defined as any of the following: • Serum monoclonal protein ≥0.5 g/dl by protein electrophoresis. • ≥200 mg/24 hours of monoclonal protein in the urine on 24-hour electrophoresis • Serum free light chain ≥10 mg/dl AND abnormal serum kappa to lambda free light chain ratio • 4. Received 2-4 prior lines of therapy, including lenalidomide and a PI, either sequential or in the same line, and is refractory (relapsed and refractory or refractory) to both the last line of therapy and to lenalidomide (≥10 mg) administered within 18 months prior to randomization. Refractory to lenalidomide is defined as progression while on lenalidomide therapy or within 60 days of last dose, following at least 2 cycles of lenalidomide with at least 14 doses of lenalidomide per cycle • 5. Life expectancy of ≥6 months • 6. Eastern Cooperative Oncology Group (ECOG) performance status ≤2 • 7. […] Participants must agree to ongoing pregnancy testing. All patients must be willing to comply with all requirements of the USA pomalidomide Risk Evaluation and Mitigation Strategy (REMS) program or the pomalidomide Pregnancy Prevention Plan (PPP) • 8. Ability to understand the purpose and risks of the study and provide signed and dated informed consent • 9. 12-lead Electrocardiogram (ECG) with QT interval calculated by Fridericia Formula (QTcF) interval of ≤470 msec Fridericia Formula • 10. […] Must be able to take antithrombotic prophylaxis • 12. Must have, or be willing to have an acceptable central catheter.

[1] = excluding patients who had received a stem cell transplant and progressed in under 36 months (melflufen+dex n=145, pomalidomide+dex n=148)
[2] = subgroup patients under 65 years
[3] = patients 75 or over who received melflufen, pomalidomide comparator worded as patients who had not received a stem cell transplant
[4] = patients who had not received a stem cell transplant as a past treatment (melflufen n=121, pomalidomide n=129), each arm with dexamethasone
[5] = stem cell transplant at least 5 years ago, melflufen in relation to pomalidomide, value below 1 favours melflufen

Compound	median overall survival (OS) [1]	OS (subgroup 64 to 74 years)	PFS (subgroup 64 to 74 years)	OS (subgroup 75 years and over)	PFS (subgroup 75 years and over)	OS (subgroup age under 75 years)	PFS (subgroup age under 75 years)	OS [2]	PFS [2]	median PFS [3]	median overall survival (OS) [3]	median overall survival (OS) [4]	median progression free survival (PFS) [4]	hazard ratio (PFS) (stem cell transplant 2.5 to 5 years ago, melflufen in relation to pomalidomide, value below 1 favours melflufen)	OS hazard ratio [5]	PFS hazard ratio [5]
CCOC(=O)[C@H](Cc1ccc(F)cc1)NC(=O)[C@@H](N)Cc1ccc(N(CCCl)CCCl)cc1.Cl [melflufen, L-melphalanyl-4-fluoro-L-phenylalanine ethyl ester]	23.6 months	22.2	9.3	14.8	9.3	22.2	9.4	27.5	10.8	9.4 months	21.6 months	21.6 months	9.3 months	0.83	0.87	0.76
Nc1cccc2c1C(=O)N(C1CCC(=O)NC1=O)C2=O (stereo not shown) [pomalidomide, reference compound]	19.8 months	15.0	3.9	8.1	4.9	18.2	4.3		4.7	4.6 months	8.3 months	16.5 months	4.6 months			
